Test results: patent US20080312164A1 (priority 2006, published 2008)
Where two headings read alike, the source gives them in different places. Marks after values point to notes of the source that are not given here.

Assays:
[1] = tested on: SF-268 cells; assay: Calcein AM cytotoxicity assay, SF-268; format: cell-based; conditions: Homo sapiens; SF-268, Calcein AM, 72 h; read-out: IC50
From the text: (§1) Five serial 1:2 dilutions were made with anhydrous DMSO at 100× the final concentration used in the assay.

[2] = tested on: NCI-H460 cells; assay: Cell Titer-Glo cytotoxicity assay, NCI-H460; format: cell-based, human; conditions: Homo sapiens; NCI-H460, Cell Titer-Glo, 72 h; read-out: IC50
From the text: as §1

[3] = tested on: Hep3B cells; assay: Cell Titer-Glo cytotoxicity assay, Hep3B; format: cell-based; conditions: Homo sapiens, Cell Titer-Glo, 72 h, read-out: IC50
From the text: as §1

[4] = tested on: Du145 cells; assay: Cell Titer-Glo cytotoxicity assay, Du145; format: cell-based; conditions: Homo sapiens, DU-145; Du145, Cell Titer-Glo, 72 h; read-out: IC50
From the text: as §1

[5] = tested on: human cancer cell lines; assay: Cytotoxicity across the panel of human cancer cell lines (average, high-throughput assays); format: cell-based
From the text: as §1

[6] = tested on: Hep3B cells; assay: Calcein AM cytotoxicity assay, Hep3B; format: cell-based; conditions: Homo sapiens, Calcein AM, 72 h, read-out: IC50
From the text: as §1

[7] = tested on: SF-268 cells; assay: Cell Titer-Glo cytotoxicity assay, SF-268; format: cell-based; conditions: Homo sapiens; SF-268, Cell Titer-Glo, 72 h; read-out: IC50
From the text: as §1

[8] = tested on: NCI/ADR RES cells; assay: Calcein AM cytotoxicity assay, NCI/ADR-RES; format: cell-based; conditions: Homo sapiens, Calcein AM, 72 h, read-out: IC50
From the text: as §1

[9] = tested on: NmuMG mouse mammary normal epithelial cells; assay: Calcein AM cytotoxicity assay, NmuMG; format: cell-based; conditions: Epithelial cell, NmuMG, Calcein AM, 72 h, read-out: IC50
From the text: as §1

[10] = tested on: Du145 cells; assay: Calcein AM cytotoxicity assay, Du145; format: cell-based; conditions: Homo sapiens, DU-145; Du145, Calcein AM, 72 h; read-out: IC50
From the text: as §1

[11] = tested on: NmuMG Cell Line; assay: Cytotoxicity in NmuMG cell line, summary table (assay not stated); format: cell-based; conditions: Mus musculus, assay not stated (mostly Cell Titer-Glo values; Calcein AM values for 20, 24, 39)
From the text: as §1

[12] = tested on: HT-29 cells; assay: MTT cytotoxicity assay, HT-29; format: cell-based; conditions: Homo sapiens; HT-29, MTT, 24 h; read-out: IC50
From the text: The IC50 value for each library member represents at least twelve replicates of dose-response experiments conducted over five concentrations. […] In this assay, live cells were distinguished by the intracellular enzymatic activity that converts the cell-permeable molecule MTT to strongly colored formazan crystals, which are retained within live cells and absorb light at 570 nm.
MTT Cytotoxicity Assay. HT-29 cell lines were maintained in RPMI medium 1640 supplemented with 10% (wt/vol) FBS and 1% penicillin-streptomycin (PS) (100 units/mL and 100 μg/mL). Cells were harvested by trypsinization using 0.25% trypsin and 0.1% EDTA and plated at a density of 2,000-5,000 cells per well of each 96-well microtiter plate. Cells were grown for 24 h at 37° C., with 5% CO2/95% air in a humidified incubator to allow cell attachment to occur before compound addition. Library members were stored at −20° C. under desiccating conditions before the assay. Library member stocks (1000×) were prepared in falcon tubes (BD Biosciences). Five dilutions were made with DMSO at 1000× the final concentration used in the assay. The 1000× stocks (3 μL) were diluted with complete culture medium (3 mL). Each plate contained twelve replicates of cells treated with 0.1% DMSO in complete cell culture medium that served as an individual negative control. Library member stocks (1×, 200 μL) were added to aspirated cells and replicated twelve times on each plate. Cells were incubated with the library members for 24 h before optical density reading. Test plates were removed from the incubator and washed once in sterile PBS to remove serum containing library members. Freshly-made 10×MTT solution in sterile PBS (5 mg/mL) was diluted 1:10 in serum-free culture medium and was sterilized using a 0.2 μm filter. Diluted MTT solution (1×, 50 μL) was added to each well and the plates were incubated in the dark for 2 h. Test plates were centrifuged at 1800×g for 5 min at 4° C. using a Beckman GPR centrifuge. MTT solution was removed by aspiration and 100 μL DMSO was added to each well to lyse cells and solubilize formazan crystals. Test plates were incubated in the dark at room temperature for 10 min. Plates were read for optical density at 570 nm.
IC50 Calculations. For each library member, at least three dose-response experiments were conducted on separate plates. […] To calculate IC50, percent inhibitions were plotted as a function of log[concentration] and then fit to a four-parameter logistic model that allowed for a variable Hill slope by using XLFIT 4.1 (ID Business Solutions, Emeryville, Calif.).

[13] = tested on: SK-OV-3 cells; assay: Calcein AM cytotoxicity assay, SK-OV-3; format: cell-based; conditions: Homo sapiens; SK-OV-3, Calcein AM, 72 h; read-out: IC50
From the text: as §1

[14] = tested on: NCI/ADR RES cells; assay: Cell Titer-Glo cytotoxicity assay, NCI/ADR-RES; format: cell-based, human; conditions: Homo sapiens; NCI/ADR-RES, Cell Titer-Glo, 72 h; read-out: IC50
From the text: as §1

[15] = tested on: HCT-116 cells; assay: Cell Titer-Glo cytotoxicity assay, HCT-116; format: cell-based; conditions: Homo sapiens; HCT-116, Cell Titer-Glo, 72 h; read-out: IC50
From the text: as §1

[16] = tested on: NCI-H460 cells; assay: Calcein AM cytotoxicity assay, NCI-H460; format: cell-based; conditions: Homo sapiens; NCI-H460, Calcein AM, 72 h; read-out: IC50
From the text: as §1

[17] = tested on: SK-OV-3 cells; assay: Cell Titer-Glo cytotoxicity assay, SK-OV-3; format: cell-based; conditions: Homo sapiens; SK-OV-3, Cell Titer-Glo, 72 h; read-out: IC50
From the text: as §1

[18] = tested on: NmuMG mouse mammary normal epithelial cells; assay: Cell Titer-Glo cytotoxicity assay, NmuMG; format: cell-based; conditions: Mus musculus, Epithelial cell; NmuMG, Cell Titer-Glo, 72 h; read-out: IC50
From the text: as §1

[19] = tested on: HCT-116 cells; assay: Calcein AM cytotoxicity assay, HCT-116; format: cell-based; conditions: Homo sapiens; HCT-116, Calcein AM, 72 h; read-out: IC50
From the text: as §1

[20] = tested on: MCF7 cells; assay: Cell Titer-Glo cytotoxicity assay, MCF7; format: cell-based, human; conditions: Homo sapiens; MCF7, Cell Titer-Glo, 72 h; read-out: IC50
From the text: as §1

[21] = tested on: MCF7 cells; assay: Calcein AM cytotoxicity assay, MCF7; format: cell-based; conditions: Homo sapiens; MCF7, Calcein AM, 72 h; read-out: IC50
From the text: as §1

[22] = tested on: several cell lines; conditions: reported; cited from earlier work
[23] = tested on: HCT-116 cells; conditions: literature (27, 35); cited from earlier work
[24] = average across eight human cancer cell lines, MTT (HT-29) values excluded
[25] = average across eight human cancer cell lines, MTT (HT-29) values excluded, read-out: Cancerous Average IC50 / Average IC50 in Cancer Cell Lines

| SMILES | IC50 [1] [µM] | IC50 [2] [µM] | IC50 [3] [µM] | IC50 [4] [µM] | IC50 [5, 25] [µM] | IC50 [6] [µM] | IC50 [7] [µM] | IC50 [8] [µM] | IC50 [9] [µM] | IC50 [10] [µM] | IC50 [11] [µM] | IC50 [12] [µM] | IC50 [13] [µM] | IC50 [14] [µM] | IC50 [15] [µM] | IC50 [16] [µM] | IC50 [17] [µM] | IC50 [18] [µM] | IC50 [19] [µM] | IC50 [20] [µM] | further results |
| --- | --- | --- | --- | --- | --- | --- | --- | --- | --- | --- | --- | --- | --- | --- | --- | --- | --- | --- | --- | --- | --- |
| S=C=Nc1ccc(Br)cc1 [Compound 20, 1-bromo-4-isothiocyanatobenzene] | > 50 | 10.4 | > 50 | 41.4 | > 50 | > 50 | 24.9 | > 50 | 183 | > 50 | 183 | > 50 | > 50 | 23.1 | 21.6 | > 50 | 19.6 | 21.4 | > 50 | 17.1 | Cancerous Average IC50 / Average IC50 in Cancer Cell Lines [5, 24]: >50.00^e μM; IC50 [21]: 26.7 µM |
| O=C(CCCCCCC(=O)Nc1cccnc1)NO [Compound 7, pyroxamide] |  |  |  |  |  |  |  |  |  |  |  |  |  |  |  |  |  |  |  |  | IC50 [22]: 1 to 20 µM; IC50 [23]: 6.5 ± 0.5 µM |
| S=C=NCc1ccccc1-c1ccccc1 [Compound 33, 1-(isothiocyanatomethyl)-2-phenylbenzene] | 4.79 | 8.95 | 4.24 | 5.25 | 4.96 | 10.6 | 6.39 | 4.12 | < 12.5 | 3.16 | 180 | 39.9 | 5.93 | 4.11 | 4.64 | 6.44 | 5.01 | 80.1 | 5.56 | 3.63 | selectivity for cancer cells over NmuMG cells ([5]; IC50 in NmuMG versus average IC50 in cancer cell lines): 36.3 fold; further fold increase in potency from multiple phenyl rings ([5]; average IC50 compared with single-ring 23 and 38): ~2 fold; IC50 [21]: 1.6 µM |
| S=C=NCCC1=CCCCC1 [Compound 39, 1-(2-isothiocyanatoethyl)cyclohex-1-ene] | 3.89 | 36.4 | 16.1 | 18.6 | 18.3 | 28.5 | 13.6 | 12.2 | 13 | 25.5 | 13 | 45.3 | 19.5 | 26.9 | 16.4 | 28.6 | 24.1 | > 200 | 19 | 19.8 | IC50 [21]: 27.5 µM |
| CC(C)CN=C=S [Compound 15, 1-isothiocyanato-2-methylpropane] | > 50 | > 50 | > 30 | > 50 | > 50 | 32.8 | > 50 | > 50 | > 200 | > 50 | > 200 | > 50 | > 50 | > 50 | > 50 | > 50 | > 50 | > 200 | 27.6 | > 50 | IC50 ([5]; Homo sapiens, Calcein AM and CellTiter Glo, all cell lines (FIG. 3 legend), read-out: IC50, all cell lines): > 50 µM; Cancerous Average IC50 / Average IC50 in Cancer Cell Lines [5, 24]: >50.00^b μM; IC50 [21]: > 50 µM |
| S=C=NCc1ccco1 [Compound 24, 2-(isothiocyanatomethyl)furan] | > 50 | > 50 | > 30 | > 50 | > 50 | > 30 | > 50 | 21.6 | 151 | > 50 | 151 | > 50 | > 30 | > 50 | > 50 | > 50 | > 50 | > 200 | > 50 | > 50 | IC50 [21]: > 50 µM |
| Cc1c(N=C=S)c(=O)n(-c2ccccc2)n1C [Compound 37, 4-isothiocyanato-2,3-dimethyl-1-phenyl-1,2-dihydropyrazol-5-one] | > 50 | > 50 | > 50 | > 50 | > 50 | > 50 | > 50 | > 50 | > 200 | > 50 | > 200 | > 50 | > 50 | > 50 | > 50 | > 50 | > 50 | > 200 | > 50 | > 50 | IC50 [21]: > 50 µM |
| S=C=NC1CC1 [Compound 17, isothiocyanatocyclopropane] | > 50 | > 50 | > 30 | > 50 | > 50 | > 30 | > 50 | > 50 | > 200 | 29.7 | > 200 | > 50 | > 30 | > 50 | > 50 | > 50 | > 50 | > 200 | > 50 | 12.6 | Cancerous Average IC50 / Average IC50 in Cancer Cell Lines [5, 24]: >50.00^c μM; IC50 [21]: 15.1 µM |
| S=C=Nc1ccccc1 [Compound 19, 1-isothiocyanatobenzene] | 2.32 | > 20 | > 20 | > 50 | >50.00 | > 50 | > 50 | > 20 | > 200 | > 50 | > 200 | > 50 | > 50 | > 20 | > 20 | > 50 | > 50 | > 200 | > 20 | > 50 | IC50 [21]: > 50 µM |
